# Target: human GPR43 (Homo sapiens (Human), UniProt O15552)
# Assay: Ca-Flux functional assay: determination of agonist/positive allosteric modulator (PAM) activity
# Assay type: cell-based
# Details: CHO-K1 Gα16 cells stably expressing human GPR43; compound added with EC20 sodium acetate; intracellular Ca2+ by FLIPR; does not distinguish agonist from PAM
# Outline: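 Agonist or PAM activity read as intracellular Ca2+ rise by FLIPR after adding compound plus EC20 acetate, acetate EC20 set from a prior curve. Cells: CHO-K1 Gα16 with stable human GPR43. EC50 from ten-point half-log curves starting 10 μM.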
# Chain of human GPR43 (O15552 whole entry): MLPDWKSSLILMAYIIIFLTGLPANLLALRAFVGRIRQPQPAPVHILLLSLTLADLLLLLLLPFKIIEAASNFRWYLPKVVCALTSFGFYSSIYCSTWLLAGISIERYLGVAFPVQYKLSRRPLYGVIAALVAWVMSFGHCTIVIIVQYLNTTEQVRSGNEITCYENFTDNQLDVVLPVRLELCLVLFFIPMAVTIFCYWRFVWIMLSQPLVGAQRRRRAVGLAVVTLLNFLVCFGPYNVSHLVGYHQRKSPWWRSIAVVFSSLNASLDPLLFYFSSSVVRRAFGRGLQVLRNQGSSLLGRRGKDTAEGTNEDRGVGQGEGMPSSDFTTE
row,EC50,Compound
1,100 nM,"CCN(CC1CCCCC1)c1ncnc2c(S(=O)(=O)c3ccccc3)c(N)[nH]c12 [Example 83, 7-(benzenesulfonyl)-4-N-(cyclohexylmethyl)-4-N-ethyl-5H-pyrrolo[3,2-d]pyrimidine-4,6-diamine]"
2,134 nM,"Nc1[nH]c2c(OCC3CC(F)(F)C3)ncnc2c1S(=O)(=O)c1ccccc1 [Example 171, 7-(benzenesulfonyl)-4-[(3,3-difluorocyclobutyl)methoxy]-5H-pyrrolo[3,2-d]pyrimidin-6-amine]"
3,52 nM,"C[C@@H]1CN(c2ncnc3c(S(=O)(=O)c4ccccc4)c(N)[nH]c23)CCO1 [Example 137, 7-(benzenesulfonyl)-4-[(2R)-2-methylmorpholin-4-yl]-5H-pyrrolo[3,2-d]pyrimidin-6-amine]"
4,818 nM,"COCC1CCN(c2ncnc3c(S(=O)(=O)c4ccccc4)c(N)[nH]c23)CC1 [Example 112, 7-(benzenesulfonyl)-4-[4-(methoxymethyl)piperidin-1-yl]-5H-pyrrolo[3,2-d]pyrimidin-6-amine]"
5,9530 nM,"Nc1[nH]c2c(N3CCC3)ncnc2c1S(=O)(=O)c1ccccc1 [Example 30, 4-(azetidin-1-yl)-7-(benzenesulfonyl)-5H-pyrrolo[3,2-d]pyrimidin-6-amine]"

# The next lines start with the compound.
row,Compound,EC50
1,"Cc1nc(OC2CCOC2(C)C)c2[nH]c(N)c(S(=O)(=O)c3ccccc3)c2n1 (stereo not drawn) [Example 258, 7-(benzenesulfonyl)-4-[(2,2-dimethyloxolan-3-yl)oxy]-2-methyl-5H-pyrrolo[3,2-d]pyrimidin-6-amine]",209 nM
2,"COc1ccc(S(=O)(=O)c2c(N)[nH]c3c(N4CCO[C@H](C(F)(F)F)C4)nc(C)nc23)c(F)c1 [Example 282, 7-(2-fluoro-4-methoxybenzenesulfonyl)-2-methyl-4-[(2S)-2-(trifluoromethyl)morpholin-4-yl]-5H-pyrrolo[3,2-d]pyrimidin-6-amine]",1 nM
3,"Nc1[nH]c2c(N3CCO[C@H](c4ccccc4)C3)ncnc2c1S(=O)(=O)c1ccccc1 [Example 133, 7-(benzenesulfonyl)-4-[(2R)-2-phenylmorpholin-4-yl]-5H-pyrrolo[3,2-d]pyrimidin-6-amine]",24 nM
4,"COc1ccc(S(=O)(=O)c2c(N)[nH]c3c(N4CCOC(C)C4)ncnc23)cc1Cl (stereo not drawn) [Example 123, 7-(3-chloro-4-methoxybenzenesulfonyl)-4-(2-methylmorpholin-4-yl)-5H-pyrrolo[3,2-d]pyrimidin-6-amine]",115 nM
5,"Cc1nc(OC(C)C2CCCC2)c2[nH]c(N)c(S(=O)(=O)c3ccccc3)c2n1 (stereo not drawn) [Example 247, 7-(benzenesulfonyl)-4-(1-cyclopentylethoxy)-2-methyl-5H-pyrrolo[3,2-d]pyrimidin-6-amine]",16 nM
6,"CC(C)CC1CN(c2ncnc3c(S(=O)(=O)c4ccccc4)c(N)[nH]c23)CCO1 (stereo not drawn) [Example 101, 7-(benzenesulfonyl)-4-[2-(2-methylpropyl)morpholin-4-yl]-5H-pyrrolo[3,2-d]pyrimidin-6-amine]",31 nM
7,"Cc1nc(N2CCOC3(CCCC3)C2)c2[nH]c(N)c(S(=O)(=O)c3ccccc3F)c2n1 [Example 177, 7-(2-fluorobenzenesulfonyl)-2-methyl-4-{6-oxa-9-azaspiro[4.5]decan-9-yl}-5H-pyrrolo[3,2-d]pyrimidin-6-amine]",6 nM
8,"CC1(C)CN(c2ccnc3c(S(=O)(=O)c4ccccc4)c(N)[nH]c23)CCO1 [Example 277, 3-(benzenesulfonyl)-7-(2,2-dimethylmorpholin-4-yl)-H-pyrrolo[3,2-b]pyridin-2-amine]",40 nM
9,"CC1(C)CN(c2nncc3c(S(=O)(=O)c4ccccc4F)c(N)[nH]c23)CCO1 [Example 234, 7-(2,2-dimethylmorpholin-4-yl)-3-(2-fluorobenzenesulfonyl)-1H-pyrrolo[2,3-d]pyridazin-2-amine]",69 nM
10,"COc1ccc(S(=O)(=O)c2c(N)[nH]c3c(N4C[C@@H](C)O[C@@H](C)C4)ncnc23)cc1 [Example 130, 4-[(2R,6S)-2,6-dimethylmorpholin-4-yl]-7-(4-methoxybenzenesulfonyl)-5H-pyrrolo[3,2-d]pyrimidin-6-amine]",20 nM
